Reference: patent publication US11879893B2, “Rapid detection test for SARS-CoV-2” (priority 2020, dated 2024)
Where two headings read alike, the source gives them in different places. Marks after values point to notes of the source that are not given here. Square brackets hold non-standard residues; d marks the D form. Primed or numbered codes have the meaning given here. Peptide text beside a SMILES is read from it. * marks the point of attachment. Dabcyl′ = CN(C)c1ccc(/N=N/c2ccc(C(=O)*)cc2)cc1; Dabcyl = CN(C)c1ccc(N=Nc2ccc(C(=O)*)cc2)cc1; EDANS = O=S(=O)(O)c1cccc2c(NCCN*)cccc12; Sta = CC(C)C[C@H](N)[C@@H](O)CC(=O)O; Isovaleryl = CC(C)CC(=O)*

Tests used:
[1] = test system: Buccal sample non-specific protease activity; assay: Inhibitor test in buccal samples: non-specific protease activity; type: biochemical
Protocol: Optimizing Inhibitor Cocktail to Maximize Buccal Sample Non-Specific Protease Activity Inhibition
(§1) 29 inhibitors were tested using a competitive enzymatic activity assay of 3CL protease in buccal samples.

[2] = molecular target: T1, 3CL Protease (Severe acute respiratory syndrome coronavirus 2, UniProt P0DTC1); type: biochemical, SARS-CoV-2
T1 construct: 6xHIS-tag (N); TEV-protease cleavage site (ENLYFQG) (N); made in house
Protocol: as §1

[3] = test system: Saliva; assay: Substrate cleavage by saliva (nonspecific activity); type: biochemical
Protocol: For these enzymatic reactions 150 ng/well enzyme was used under final and optimized assay conditions, i.e. […] Experiment were tested with 3 different saliva samples; representative results are shown.

[4] = molecular target: SARS-CoV-2 3CL Pro (Severe acute respiratory syndrome coronavirus 2, UniProt P0DTC1); details: for Enzymatic activity, Slope, SARS-CoV-2: enzyme 150 ng/reaction; for % Enz activity, SARS-CoV-2: Table 5: relative to the substrate's own protease = 100
[5] = molecular target: T2, HCoV-229E 3CL protease (Human coronavirus 229E, UniProt P0C6U2); assay: Substrate cleavage by HCoV-229E 3CL protease; type: biochemical; details: for Enzymatic activity, Slope, HCoV-229E / cross reactivity SARS-CoV-2 versus HCoV-229E protease: enzyme 150 ng/reaction; for % Enz activity, HCoV-229E: Table 5: relative to the substrate's own protease = 100; for cross reactivity SARS-CoV-2 versus HCoV-229E protease: substrate 5 uM
T2 construct: 6xHIS-tag (N); TEV-protease cleavage site (ENLYFQG) (N); made in house; host or cells: Rosetta BL21 E. coli, pET14b
Protocol: (§2) Running condition: Substrate concentration-5 uM, enzyme concentration 150 ng/reaction.
(§3) Enzymatic activity (RFU/min) of SARS-CoV-2, HCoV-229E and HRV 3CL and 3C proteases using peptide (SEQ ID NO: 8) is summarized in Table 6. Substrate concentration-1 μM, enzyme concentration 150 ng/reaction.

[6] = test system: HRV 3C protease; assay: Substrate cleavage by HRV 3C protease; type: biochemical, Human Rhinovirus (HRV); details: for % Enz activity, HRV: Table 5: relative to the substrate's own protease = 100
Protocol: as §2, §3

[7] = molecular target: T3, 3CL (Severe acute respiratory syndrome coronavirus 2, UniProt P0DTC1); type: biochemical, SARS-CoV-2
T3 construct: 6xHIS-tag (N); TEV-protease cleavage site (ENLYFQG) (N); made in house; host or cells: Rosetta BL21 E. coli, pET14b
Protocol: In order to find the final and optimal reaction conditions, several parameters were tested:
Reducing agent: DTT and TCEP were tested at various concentrations to see if enzyme activity was affected.

[8] = test system: non-specific protease activity in saliva; assay: Inhibitor test in saliva samples: non-specific protease activity; type: biochemical
Protocol: (§4) The purpose of adding protease inhibitors to the buffer is to reduce nonspecific saliva activity and increase signal to noise ratio. 29 inhibitors were tested using a competitive enzymatic activity assay of 3CL Protease in saliva samples.

[9] = molecular target: T1, 3CL Protease; type: biochemical, SARS-CoV-2; details: saliva samples
Protocol: as §4

[10] = Table 2: 5 μM substrate, Dabcyl/EDANS, final buffer
[11] = Table 2: 150 ng/well enzyme, 5 μM substrate, Dabcyl/EDANS, final buffer
[12] = Table 3: 1 uM substrate, 488/535 nm, gain 1400, buffer without BSA
[13] = Table 4: substrate 5 uM, enzyme 150 ng/reaction

## CC(C)CC(=O)N[C@H](C(=O)N[C@H](C(=O)N[C@@H](CC(C)C)[C@@H](O)CC(=O)N[C@@H](C)C(=O)N[C@@H](CC(C)C)[C@@H](O)CC(=O)O)C(C)C)C(C)C [pepstatin] (Isovaleryl-VV[Sta]A[Sta]-OH)
[1]
  non-specific protease activity: decreased
[2]
  inhibition of 3CL specific activity: non significant inhibition

## Dabcyl-AVLQSGF-{EDANS} [Substrate#3]
[3]; [10]
  Saliva: 47 +/− 5
[4]; [11]
  Enzyme: 354 +/− 18

## [BHQ-1]-TSAVLQSGF-[Cys(AF488)]-RK-amide ({BHQ‑1}-TSAVLQSGFC(AF488)RK-NH2; also: places amidation at residue 10) [CBR #2]
[5]; Table 6: substrate 1 μM
  Enzymatic activity, Slope, HCoV-229E: 1116 RFU/min
[3]; [12]
  Saliva: 512 +/− 16
[4]; [12]
  Enzyme: 6425 +/− 41
[4]; Table 6: substrate 1 μM
  Enzymatic activity, Slope, SARS-CoV-2: 3536 RFU/min
[4]; enzyme versus saliva, Table 3 conditions
  signal to noise: 12.5
[6]; Table 6: substrate 1 μM, enzyme 150 ng/reaction
  Enzymatic activity, Slope, HRV: 9 RFU/min

## O[C@@H](CS)[C@@H](O)CS [DTT]
[7]; various concentrations, DTT 5 mM
  effect of reducing agent on enzyme activity: most effective at preserving enzyme activity

## Dabcyl-AVLQSGFRK-EDANS ({Dabcyl′}-AVLQSGFRK-{EDANS}; SMILES CC(C)C[C@H](NC(=O)[C@@H](NC(=O)[C@H](C)NC(=O)c1ccc(/N=N/c2ccc(N(C)C)cc2)cc1)C(C)C)C(=O)N[C@@H](CCC(N)=O)C(=O)N[C@@H](CO)C(=O)NCC(=O)N[C@@H](Cc1ccccc1)C(=O)N[C@@H](CCCNC(=N)N)C(=O)N[C@@H](CCCCN)C(=O)NCCNc1cccc2c(S(=O)(=O)O)cccc12) [Substrate#4]
[3]; [10]
  Saliva: 1515 +/− 40
[4]; [11]
  Enzyme: 1077 +/− 35

## OCC(O)CO [glycerol]
[7]
  effect of potential enzyme mediator on enzyme activity: No positive effect

## Dabcyl-KTSAVLQSGFRKME-EDANS [Commercial substrate, reference compound]
[5]; Table 4: substrate 5 uM
  Enzymatic activity, Slope, HCoV-229E: 493 RFU/min
[5]
  % Enz activity, HCoV-229E: 26%
  cross reactivity SARS-CoV-2 versus HCoV-229E protease: greater activity towards SARS-CoV-2 than HCoV-229E protease
[3]; [10]
  Saliva: 2309 +/− 64
[6]; [13]
  Enzymatic activity, Slope, HRV: 87 RFU/min
[6]
  % Enz activity, HRV: 1%

## [BHQ-1]-TSAVLQSGFRK-[Cys(AF488)]-amide [CBR #1]
[3]; [12]
  Saliva: 1356 +/− 37

## [BHQ-1]-AVLQSGF-[Cys(AF488)]-RK-amide ({BHQ‑1}-AVLQSGFC(AF488)RK-NH2) [CBR #3]
[3]; [12]
  Saliva: 154 +/− 6
[4]; [12]
  Enzyme: 461 +/− 18

## Aprotinin
[8]
  non-specific protease activity in saliva: decreased
[9]
  inhibition of 3CL specific activity: non significant inhibition
[1]
  non-specific protease activity: decreased
[2]; buccal samples
  inhibition of 3CL specific activity: non significant inhibition

## Dabcyl-TSAVLQSGFYK-EDANS ({Dabcyl′}-TSAVLQSGFYK-{EDANS}; SMILES CC(C)C[C@H](NC(=O)[C@@H](NC(=O)[C@H](C)NC(=O)[C@H](CO)NC(=O)[C@@H](NC(=O)c1ccc(/N=N/c2ccc(N(C)C)cc2)cc1)[C@@H](C)O)C(C)C)C(=O)N[C@@H](CCC(N)=O)C(=O)N[C@@H](CO)C(=O)NCC(=O)N[C@@H](Cc1ccccc1)C(=O)N[C@@H](Cc1ccc(O)cc1)C(=O)N[C@@H](CCCCN)C(=O)NCCNc1cccc2c(S(=O)(=O)O)cccc12) [Substrate#5]
[3]; [10]
  Saliva: 4688 +/− 53
[4]; [11]
  Enzyme: 527 +/− 7

## [BHQ-1]-AVLQSGFRK-[Cys(AF488)]-amide ({BHQ‑1}-AVLQSGFRKC(AF488)-NH2) [CBR #4]
[3]; [12]
  Saliva: 726 +/− 25
[4]; [12]
  Enzyme: 657 +/− 6

## [Cl-].[Na+] [NaCl]
[7]
  effect of potential enzyme mediator on enzyme activity: No positive effect

## Dabcyl-YGSTLQAGLRK-EDANS ({Dabcyl′}-YGSTLQAGLRK-{EDANS}; SMILES CC(C)C[C@H](NC(=O)CNC(=O)[C@H](C)NC(=O)[C@H](CCC(N)=O)NC(=O)[C@H](CC(C)C)NC(=O)[C@@H](NC(=O)[C@H](CO)NC(=O)CNC(=O)[C@H](Cc1ccc(O)cc1)NC(=O)c1ccc(/N=N/c2ccc(N(C)C)cc2)cc1)[C@@H](C)O)C(=O)N[C@@H](CCCNC(=N)N)C(=O)N[C@@H](CCCCN)C(=O)NCCNc1cccc2c(S(=O)(=O)O)cccc12) [Biosyn#6]
[5]; Table 4: substrate 5 uM
  Enzymatic activity, Slope, HCoV-229E: 213 RFU/min
[5]
  % Enz activity, HCoV-229E: 100%
  cross reactivity SARS-CoV-2 versus HCoV-229E protease: greater activity towards SARS-CoV-2 than HCoV-229E protease
[4]; Table 4: substrate 5 uM
  Enzymatic activity, Slope, SARS-CoV-2: 349 RFU/min
[4]
  % Enz activity, SARS-CoV-2: 190%
[6]; [13]
  Enzymatic activity, Slope, HRV: 44 RFU/min
[6]
  % Enz activity, HRV: −7* %

## O=S(=O)(F)Cc1ccccc1 [PMSF]
[8]
  non-specific protease activity in saliva: decreased
[9]
  inhibition of 3CL specific activity: non significant inhibition
[1]
  non-specific protease activity: decreased
  ranking among 29 inhibitors tested: four best inhibitors
[2]; buccal samples
  inhibition of 3CL specific activity: non significant inhibition

## Dabcyl-LEALFQGP[Asp-(EDANS) SQ [Amide] ({Dabcyl′}-LEALFQGPD(EDANS)SQ-NH2; SMILES CC(C)C[C@H](NC(=O)c1ccc(/N=N/c2ccc(N(C)C)cc2)cc1)C(=O)N[C@@H](CCC(=O)O)C(=O)N[C@@H](C)C(=O)N[C@@H](CC(C)C)C(=O)N[C@@H](Cc1ccccc1)C(=O)N[C@@H](CCC(N)=O)C(=O)NCC(=O)N1CCC[C@H]1C(=O)N[C@@H](CC(=O)NCCNc1cccc2c(S(=O)(=O)O)cccc12)C(=O)N[C@@H](CO)C(=O)N[C@@H](CCC(N)=O)C(N)=O) [Biosyn#7]
[5]; Table 4: substrate 5 uM
  Enzymatic activity, Slope, HCoV-229E: 45 RFU/min
[5]
  % Enz activity, HCoV-229E: 0%
[4]; Table 4: substrate 5 uM
  Enzymatic activity, Slope, SARS-CoV-2: 43 RFU/min
[4]
  % Enz activity, SARS-CoV-2: 0%
[6]; [13]
  Enzymatic activity, Slope, HRV: 1041 RFU/min
[6]
  % Enz activity, HRV: 100%
[6]; substrate 5 uM, enzyme 150 ng/reaction
  specificity for HRV: specific for HRV

## Dabcyl-TSAVLQSGF-EDANS ({Dabcyl′}-TSAVLQSGF-{EDANS}; SMILES CC(C)C[C@H](NC(=O)[C@@H](NC(=O)[C@H](C)NC(=O)[C@H](CO)NC(=O)[C@@H](NC(=O)c1ccc(/N=N/c2ccc(N(C)C)cc2)cc1)[C@@H](C)O)C(C)C)C(=O)N[C@@H](CCC(N)=O)C(=O)N[C@@H](CO)C(=O)NCC(=O)N[C@@H](Cc1ccccc1)C(=O)NCCNc1cccc2c(S(=O)(=O)O)cccc12) [Substrate#2]
[3]; [10]
  Saliva: 187 +/− 7
[4]; [11]
  Enzyme: 449 +/− 36

## 2,6 PDA
[8]
  non-specific protease activity in saliva: decreased
[9]
  inhibition of 3CL specific activity: non significant inhibition
[1]
  ranking among 29 inhibitors tested: four best inhibitors

## Dabcyl-TSAVLQSGFRK-EDANS [Biosyn #1]
[5]; Table 4: substrate 5 uM
  Enzymatic activity, Slope, HCoV-229E: 856 RFU/min
[5]
  % Enz activity, HCoV-229E: 95%
  cross reactivity SARS-CoV-2 versus HCoV-229E protease: Cross reactivity was detected
[3]; [10]
  Saliva: 1123 +/− 35
[6]; [13]
  Enzymatic activity, Slope, HRV: −12 RFU/min
[6]
  % Enz activity, HRV: −1* %

## AC-DEVD-CHO
[8]
  non-specific protease activity in saliva: decreased
[9]
  inhibition of 3CL specific activity: non significant inhibition

B1: Eglin C (protein)
chain: TEFGSELKSFPEVVGKTVDQAREYFTLHYPQYDVYFLPEGSPVTLDLRYNRVRVFYNPGTNVVNHVPHVG
[8]
  non-specific protease activity in saliva: decreased
[9]
  inhibition of 3CL specific activity: non significant inhibition
[1]
  non-specific protease activity: decreased
  ranking among 29 inhibitors tested: four best inhibitors
[2]; buccal samples
  inhibition of 3CL specific activity: non significant inhibition
